Molecules are shown by their SMILES.

The nature of assay [1]: Inhibition of apoE4 expressed in rat PC12 cells assessed as reversal of mitochondrial impairment. Format: cell-based. The note with it: pc-12.
Assay [2] in a line: Inhibition of apoE4 expressed in Neuro2a cells assessed as increase in COX1 level by Western blot assay. It counts as cell-based. The following applies: N2a. (In western blotting, separated proteins are transferred to a membrane and probed.)

By EC50 is commonly meant the concentration needed to bring the measured effect to its halfway point. `Cn1nc(CC(=O)Nc2cccc(-c3ccc(C#N)cc3)c2)c2ccccc2c1=O`: the concentration for a half-maximal effect (EC50) in assay [1] was less than 0.001 µM.

As a reminder, the IC50 is the concentration at which inhibition is half-maximal. Turning to `Cn1nc(CC(=O)Nc2ccc(CN3CCN(C(=O)OC(C)(C)C)CC3)cc2)c2ccccc2c1=O`, the IC50 in assay [2] is 0.041 µM.

(Values after ChEMBL document CHEMBL2176937, “Small-molecule structure correctors target abnormal protein structure and function: structure corrector rescue of apolipoprotein E4-associated neuropathology” (J Med Chem, 2012).)
